Measurements taken from the NIST ThermoML archive (doi:10.1016/j.jct.2012.03.031).

Test: molar heat capacity at constant pressure
Conditions: 101.33 kPa

CCCCc1ccc(C(=O)Oc2ccc(C#N)c(F)c2)cc1 [4-cyano-3-fluorophenyl 4-butylbenzoate]
Conditions | molar heat capacity at constant pressure [J/K/mol]
221.07 K, Crystal 2, Small (less than 1 g) adiabatic calorimetry | 311.55
221.65 K, Crystal 1, Small (less than 1 g) adiabatic calorimetry | 297.64
222.84 K, Crystal 1, Small (less than 1 g) adiabatic calorimetry | 299.23
223.8 K, Crystal 2, Small (less than 1 g) adiabatic calorimetry | 314.36
223.83 K, Crystal 1, Small (less than 1 g) adiabatic calorimetry | 300.59
224.03 K, Crystal 1, Small (less than 1 g) adiabatic calorimetry | 300.76
225.22 K, Crystal 1, Small (less than 1 g) adiabatic calorimetry | 302.28
226.41 K, Crystal 1, Small (less than 1 g) adiabatic calorimetry | 303.96
226.54 K, Crystal 2, Small (less than 1 g) adiabatic calorimetry | 317.16
226.65 K, Crystal 1, Small (less than 1 g) adiabatic calorimetry | 304.49
227.59 K, Crystal 1, Small (less than 1 g) adiabatic calorimetry | 305.68
228.77 K, Crystal 1, Small (less than 1 g) adiabatic calorimetry | 307.52
229.29 K, Crystal 2, Small (less than 1 g) adiabatic calorimetry | 320.04
229.47 K, Crystal 1, Small (less than 1 g) adiabatic calorimetry | 308.62
229.94 K, Crystal 1, Small (less than 1 g) adiabatic calorimetry | 309.12
230 K, Crystal 1, Vacuum adiabatic calorimetry | 309.39
230 K, Crystal 2, Vacuum adiabatic calorimetry | 320.68
231.12 K, Crystal 1, Small (less than 1 g) adiabatic calorimetry | 310.59
232.06 K, Crystal 2, Small (less than 1 g) adiabatic calorimetry | 322.55
232.28 K, Crystal 1, Small (less than 1 g) adiabatic calorimetry | 312.29
232.3 K, Crystal 1, Small (less than 1 g) adiabatic calorimetry | 312.7
233.45 K, Crystal 1, Small (less than 1 g) adiabatic calorimetry | 313.85
234.61 K, Crystal 1, Small (less than 1 g) adiabatic calorimetry | 315.48
234.84 K, Crystal 2, Small (less than 1 g) adiabatic calorimetry | 325.57
235.14 K, Crystal 1, Small (less than 1 g) adiabatic calorimetry | 316.89
235.77 K, Crystal 1, Small (less than 1 g) adiabatic calorimetry | 317.02
236.93 K, Crystal 1, Small (less than 1 g) adiabatic calorimetry | 318.75
237.63 K, Crystal 2, Small (less than 1 g) adiabatic calorimetry | 328.79
238.05 K, Crystal 1, Small (less than 1 g) adiabatic calorimetry | 321.4
238.08 K, Crystal 1, Small (less than 1 g) adiabatic calorimetry | 320.42
239.23 K, Crystal 1, Small (less than 1 g) adiabatic calorimetry | 322.04
240 K, Crystal 1, Vacuum adiabatic calorimetry | 324.53
240 K, Crystal 2, Vacuum adiabatic calorimetry | 332.29
240.38 K, Crystal 1, Small (less than 1 g) adiabatic calorimetry | 323.67
240.43 K, Crystal 2, Small (less than 1 g) adiabatic calorimetry | 332.92
241.04 K, Crystal 1, Small (less than 1 g) adiabatic calorimetry | 326.21
241.52 K, Crystal 1, Small (less than 1 g) adiabatic calorimetry | 325.48
242.66 K, Crystal 1, Small (less than 1 g) adiabatic calorimetry | 327.48
243.24 K, Crystal 2, Small (less than 1 g) adiabatic calorimetry | 336.05
243.8 K, Crystal 1, Small (less than 1 g) adiabatic calorimetry | 328.63
244.07 K, Crystal 1, Small (less than 1 g) adiabatic calorimetry | 330.21
246.07 K, Crystal 1, Small (less than 1 g) adiabatic calorimetry | 331.47
247.13 K, Crystal 1, Small (less than 1 g) adiabatic calorimetry | 334.86
247.2 K, Crystal 1, Small (less than 1 g) adiabatic calorimetry | 333.06
248.33 K, Crystal 1, Small (less than 1 g) adiabatic calorimetry | 334.82
249.45 K, Crystal 1, Small (less than 1 g) adiabatic calorimetry | 336.63
250 K, Crystal 1, Vacuum adiabatic calorimetry | 339.52
250.22 K, Crystal 1, Small (less than 1 g) adiabatic calorimetry | 339.88
250.57 K, Crystal 1, Small (less than 1 g) adiabatic calorimetry | 338.23
251.69 K, Crystal 1, Small (less than 1 g) adiabatic calorimetry | 339.75
252.81 K, Crystal 1, Small (less than 1 g) adiabatic calorimetry | 341.78
253.35 K, Crystal 1, Small (less than 1 g) adiabatic calorimetry | 344.81
253.92 K, Crystal 1, Small (less than 1 g) adiabatic calorimetry | 343.44
255.03 K, Crystal 1, Small (less than 1 g) adiabatic calorimetry | 345.42
256.14 K, Crystal 1, Small (less than 1 g) adiabatic calorimetry | 347.42
256.51 K, Crystal 1, Small (less than 1 g) adiabatic calorimetry | 349.77
257.24 K, Crystal 1, Small (less than 1 g) adiabatic calorimetry | 349.12
258.34 K, Crystal 1, Small (less than 1 g) adiabatic calorimetry | 350.75
259.44 K, Crystal 1, Small (less than 1 g) adiabatic calorimetry | 352.9
259.7 K, Crystal 1, Small (less than 1 g) adiabatic calorimetry | 354.86
260 K, Crystal 1, Vacuum adiabatic calorimetry | 355.31
260.54 K, Crystal 1, Small (less than 1 g) adiabatic calorimetry | 354.79
261.63 K, Crystal 1, Small (less than 1 g) adiabatic calorimetry | 356.59
262.72 K, Crystal 1, Small (less than 1 g) adiabatic calorimetry | 358.59
262.92 K, Crystal 1, Small (less than 1 g) adiabatic calorimetry | 359.67
263.8 K, Crystal 1, Small (less than 1 g) adiabatic calorimetry | 360.46
264.89 K, Crystal 1, Small (less than 1 g) adiabatic calorimetry | 362.63
265.96 K, Crystal 1, Small (less than 1 g) adiabatic calorimetry | 364.99
266.18 K, Crystal 1, Small (less than 1 g) adiabatic calorimetry | 364.4
267.04 K, Crystal 1, Small (less than 1 g) adiabatic calorimetry | 367.18
268.11 K, Crystal 1, Small (less than 1 g) adiabatic calorimetry | 369.24
269.18 K, Crystal 1, Small (less than 1 g) adiabatic calorimetry | 371.72
269.46 K, Crystal 1, Small (less than 1 g) adiabatic calorimetry | 369.89
270 K, Crystal 1, Vacuum adiabatic calorimetry | 371.52
270.25 K, Crystal 1, Small (less than 1 g) adiabatic calorimetry | 373.77
271.31 K, Crystal 1, Small (less than 1 g) adiabatic calorimetry | 375.16
272.37 K, Crystal 1, Small (less than 1 g) adiabatic calorimetry | 378.43
272.76 K, Crystal 1, Small (less than 1 g) adiabatic calorimetry | 379.8
273.42 K, Crystal 1, Small (less than 1 g) adiabatic calorimetry | 380.54
274.47 K, Crystal 1, Small (less than 1 g) adiabatic calorimetry | 383.84
275.53 K, Crystal 1, Small (less than 1 g) adiabatic calorimetry | 385.34
276.08 K, Crystal 1, Small (less than 1 g) adiabatic calorimetry | 388.45
276.58 K, Crystal 1, Small (less than 1 g) adiabatic calorimetry | 389.76
277.62 K, Crystal 1, Small (less than 1 g) adiabatic calorimetry | 392.5
278.67 K, Crystal 1, Small (less than 1 g) adiabatic calorimetry | 396.43
279.42 K, Crystal 1, Small (less than 1 g) adiabatic calorimetry | 397.42
279.7 K, Crystal 1, Small (less than 1 g) adiabatic calorimetry | 398.5
280 K, Crystal 1, Vacuum adiabatic calorimetry | 397.19
281.47 K, Crystal 1, Small (less than 1 g) adiabatic calorimetry | 402.8
282.22 K, Crystal 1, Small (less than 1 g) adiabatic calorimetry | 405.47
282.99 K, Crystal 1, Small (less than 1 g) adiabatic calorimetry | 408.97
283.75 K, Crystal 1, Small (less than 1 g) adiabatic calorimetry | 414.38
284.5 K, Crystal 1, Small (less than 1 g) adiabatic calorimetry | 422.32
285.25 K, Crystal 1, Small (less than 1 g) adiabatic calorimetry | 436.88
285.98 K, Crystal 1, Small (less than 1 g) adiabatic calorimetry | 474.25

Liquid
Conditions | molar heat capacity at constant pressure [J/K/mol]
289.24 K, Small (less than 1 g) adiabatic calorimetry | 479.05
289.97 K, Small (less than 1 g) adiabatic calorimetry | 476.93
290 K, Vacuum adiabatic calorimetry | 473.62
290.7 K, Small (less than 1 g) adiabatic calorimetry | 476.25
291.67 K, Small (less than 1 g) adiabatic calorimetry | 476.45
291.8 K, Small (less than 1 g) adiabatic calorimetry | 475.34
293.12 K, Small (less than 1 g) adiabatic calorimetry | 477.07
294.48 K, Small (less than 1 g) adiabatic calorimetry | 476.74
295.04 K, Small (less than 1 g) adiabatic calorimetry | 477.7
297.17 K, Small (less than 1 g) adiabatic calorimetry | 477.75
297.43 K, Small (less than 1 g) adiabatic calorimetry | 478.84
298.15 K, Vacuum adiabatic calorimetry | 478.16
299.87 K, Small (less than 1 g) adiabatic calorimetry | 478.89
300 K, Vacuum adiabatic calorimetry | 478.96
302.6 K, Small (less than 1 g) adiabatic calorimetry | 480.42
305.34 K, Small (less than 1 g) adiabatic calorimetry | 481.47
308.1 K, Small (less than 1 g) adiabatic calorimetry | 482.84
310 K, Vacuum adiabatic calorimetry | 483.98
310.87 K, Small (less than 1 g) adiabatic calorimetry | 484.5
313.66 K, Small (less than 1 g) adiabatic calorimetry | 486.08
316.47 K, Small (less than 1 g) adiabatic calorimetry | 487.53
319.29 K, Small (less than 1 g) adiabatic calorimetry | 489.61
320 K, Vacuum adiabatic calorimetry | 490.09
322.13 K, Small (less than 1 g) adiabatic calorimetry | 491.52
324.98 K, Small (less than 1 g) adiabatic calorimetry | 493.16
327.85 K, Small (less than 1 g) adiabatic calorimetry | 495.06
330 K, Vacuum adiabatic calorimetry | 496.49
330.74 K, Small (less than 1 g) adiabatic calorimetry | 496.98
333.64 K, Small (less than 1 g) adiabatic calorimetry | 498.96
336.55 K, Small (less than 1 g) adiabatic calorimetry | 500.86
339.48 K, Small (less than 1 g) adiabatic calorimetry | 502.59
340 K, Vacuum adiabatic calorimetry | 502.96
342.43 K, Small (less than 1 g) adiabatic calorimetry | 504.71
345.39 K, Small (less than 1 g) adiabatic calorimetry | 506.48
348.36 K, Small (less than 1 g) adiabatic calorimetry | 508.66
350 K, Vacuum adiabatic calorimetry | 509.84
351.35 K, Small (less than 1 g) adiabatic calorimetry | 510.81
354.35 K, Small (less than 1 g) adiabatic calorimetry | 513
357.37 K, Small (less than 1 g) adiabatic calorimetry | 514.97
360.4 K, Small (less than 1 g) adiabatic calorimetry | 517.24
